Laboratory results as given in patent US8067424B2, “Selective inhibitors for cyclin-dependent kinases” (Emory University, priority 2007, dated 2011).
Like-named read-outs stand apart in the source and are kept apart here.

How the values were obtained:
[1] = biological target: AURORA C (Homo sapiens, UniProt Q9UQB9); assay: Kinase screen: Aurora C assay; format: biochemical; conditions: read-out: Mean Remaining Enzyme Activity (%)
Procedure: Generally, the same procedure was used for all assays. Since the total assay volume was 25.5 microliters, 0.5 microliters of inhibitors at 51× assay concentration were added to the plates before any other addition.
The basic procedure was to add 0.5 microliters inhibitor/control in DMSO to plate. Fifteen microliters of enzyme/substrate/buffer mix were added and incubated for 5 min. Ten microliters MgATP at the relevant concentration were added and incubated for 30 min. The assay was stopped by adding 5 microliters of 3% orthophosphoric acid. The assay was transferred to a p81 filter plate and read in a scintillation counter of 30 sec/well. Note that this assay procedure was not followed for MKK1, which instead involved a two-step assay, and PKC alpha, which required the addition of lipid vesicles.
Aurora C assay: Aurora C (5-20 mU diluted in 50 mM Tris pH 7.5, 0.1 mM EGTA, 0.1% b-mercaptoethanol, 1 mg/ml BSA) was assayed against a substrate peptide ([…]) (SEQ ID NO: 26) in a final volume of 25.5 μl containing 50 mM Tris pH 7.5, 0.05% b-mercaptoethanol, 300 μM substrate peptide, 10 mM magnesium acetate and 0.005 mM [33P-g-ATP] (50-1000 cpm/pmole) and incubated for 30 min at room temperature. Assays were stopped by addition of 5 μl of 0.5 M (3%) orthophosphoric acid and then harvested onto P81 Unifilter plates with a wash buffer of 50 mM orthophosphoric acid.

[2] = system: HT29
[3] = system: KM12
[4] = system: M14
[5] = system: SK-MEL-28
[6] = system: A498
[7] = system: RXF 393
[8] = system: UO-31
[9] = system: MDA-MB-435
[10] = system: U251; assay: cells; conditions: Homo sapiens
[11] = system: ACHN; assay: cells; conditions: Homo sapiens
[12] = system: MDA-MB-468
[13] = SK-MEL-28, log10 concentration −4.0
[14] = SK-MEL-28, log10 concentration −5.0
[15] = SK-MEL-28, log10 concentration −6.0
[16] = SK-MEL-28, log10 concentration −7.0
[17] = SK-MEL-28, log10 concentration −8.0
[18] = RXF 393, log10 concentration −4.0
[19] = RXF 393, log10 concentration −5.0
[20] = RXF 393, log10 concentration −6.0
[21] = RXF 393, log10 concentration −7.0
[22] = RXF 393, log10 concentration −8.0
[23] = UO-31, log10 concentration −4.0
[24] = UO-31, log10 concentration −5.0
[25] = UO-31, log10 concentration −6.0
[26] = UO-31, log10 concentration −7.0
[27] = UO-31, log10 concentration −8.0
[28] = MDA-MB-435, log10 concentration −4.0
[29] = MDA-MB-435, log10 concentration −5.0
[30] = MDA-MB-435, log10 concentration −6.0
[31] = MDA-MB-435, log10 concentration −7.0
[32] = MDA-MB-435, log10 concentration −8.0
[33] = MDA-MB-468, log10 concentration −4.0
[34] = MDA-MB-468, log10 concentration −5.0
[35] = MDA-MB-468, log10 concentration −6.0
[36] = MDA-MB-468, log10 concentration −7.0
[37] = MDA-MB-468, log10 concentration −8.0

AURORA C, sequence (Q9UQB9 whole entry): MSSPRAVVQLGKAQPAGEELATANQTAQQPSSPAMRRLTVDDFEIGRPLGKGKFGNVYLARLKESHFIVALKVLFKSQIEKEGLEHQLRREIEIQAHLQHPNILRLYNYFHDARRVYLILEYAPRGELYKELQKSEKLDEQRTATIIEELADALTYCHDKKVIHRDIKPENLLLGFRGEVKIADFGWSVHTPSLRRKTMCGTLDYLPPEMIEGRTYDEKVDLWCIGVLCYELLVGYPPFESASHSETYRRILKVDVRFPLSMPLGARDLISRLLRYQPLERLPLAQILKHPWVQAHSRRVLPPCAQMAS

`CC(C)c1cnn2c(NCc3ccccc3)cc(NCCCCCCCN)nc12` [BS-181] showed a remaining activity at 10 µM [1] of 98%.
In the case of `CC(C)c1cnn2c(NCc3ccccc3)cc(N[C@@H](CO)[C@H](O)CO)nc12` [ICEC0318, (3S)-3-(7-(Benzylamino)-3-isopropylpyrazolo[1,5-a]pyrimidin-5-ylamino)butane-1,2,4-triol], the TGI ([2]; HT29 (Colon Cancer)) is reported as 3.66E−5, the “Mean Optical Densities” value ([2]; HT29, log10 concentration −4.0) is reported as 0.190 and the “Percent Growth” value ([2]; HT29, log10 concentration −4.0) is reported as −2%. For the same compound, the “Mean Optical Densities” value ([2]; HT29, log10 concentration −5.0) was 0.216, the “Percent Growth” value ([2]; HT29, log10 concentration −5.0) was 2% and the “Mean Optical Densities” value ([2]; HT29, log10 concentration −6.0) was 0.247. The “Percent Growth” value ([2]; HT29, log10 concentration −6.0) was 5%, the “Mean Optical Densities” value ([2]; HT29, log10 concentration −7.0) was 1.345 and the “Percent Growth” value ([2]; HT29, log10 concentration −7.0) was 100%. For the same compound, the “Mean Optical Densities” value ([2]; HT29, log10 concentration −8.0) was 1.394, the “Percent Growth” value ([2]; HT29, log10 concentration −8.0) was 105% and the TGI ([3]; KM12 (Colon Cancer)) was over 1.00E−4. The “Mean Optical Densities” value ([3]; KM12, log10 concentration −4.0) was 0.305, the “Percent Growth” value ([3]; KM12, log10 concentration −4.0) was 10% and the “Mean Optical Densities” value ([3]; KM12, log10 concentration −5.0) was 0.304. For the same compound, the “Percent Growth” value ([3]; KM12, log10 concentration −5.0) was 10%, the “Mean Optical Densities” value ([3]; KM12, log10 concentration −6.0) was 0.318 and the “Percent Growth” value ([3]; KM12, log10 concentration −6.0) was 12%. For the same compound, the “Mean Optical Densities” value ([3]; KM12, log10 concentration −7.0) was 0.802, the “Percent Growth” value ([3]; KM12, log10 concentration −7.0) was 80% and the “Mean Optical Densities” value ([3]; KM12, log10 concentration −8.0) was 1.036. The “Percent Growth” value ([3]; KM12, log10 concentration −8.0) was 113%, the TGI ([4]; M14 (Melanoma)) was 1.00E−6 and the “Mean Optical Densities” value ([4]; M14, log10 concentration −4.0) was 0.125. For the same compound, the “Percent Growth” value ([4]; M14, log10 concentration −4.0) was −62%, the “Mean Optical Densities” value ([4]; M14, log10 concentration −5.0) was 0.246 and the “Percent Growth” value ([4]; M14, log10 concentration −5.0) was −26%. The “Mean Optical Densities” value ([4]; M14, log10 concentration −6.0) was 0.333, the “Mean Optical Densities” value ([4]; M14, log10 concentration −7.0) was 1.032 and the “Percent Growth” value ([4]; M14, log10 concentration −7.0) was 97%. The “Mean Optical Densities” value ([4]; M14, log10 concentration −8.0) was 1.074, the “Percent Growth” value ([4]; M14, log10 concentration −8.0) was 103% and the TGI ([5]; SK-MEL-28 (Melanoma)) was 8.70E−7. The “Mean Optical Densities” value [5, 13] was 0.114, the “Percent Growth” value [5, 13] was −62% and the “Mean Optical Densities” value [5, 14] was 0.198. For the same compound, the “Percent Growth” value [5, 14] was −34%, the “Mean Optical Densities” value [5, 15] was 0.284 and the “Percent Growth” value [5, 15] was −6%. The “Mean Optical Densities” value [5, 16] was 0.733, the “Percent Growth” value [5, 16] was 85% and the “Mean Optical Densities” value [5, 17] was 0.816. For the same compound, the “Percent Growth” value [5, 17] was 102%, the TGI ([6]; A498 (Renal Cancer)) was 4.83E−7 and the “Mean Optical Densities” value ([6]; A498, log10 concentration −4.0) was 0.386. For the same compound, the “Percent Growth” value ([6]; A498, log10 concentration −4.0) was −54%, the “Mean Optical Densities” value ([6]; A498, log10 concentration −5.0) was 0.365 and the “Percent Growth” value ([6]; A498, log10 concentration −5.0) was −56%. For the same compound, the “Mean Optical Densities” value ([6]; A498, log10 concentration −6.0) was 0.414, the “Percent Growth” value ([6]; A498, log10 concentration −6.0) was −50% and the “Mean Optical Densities” value ([6]; A498, log10 concentration −7.0) was 1.321. The “Percent Growth” value ([6]; A498, log10 concentration −7.0) was 109%, the “Mean Optical Densities” value ([6]; A498, log10 concentration −8.0) was 1.280 and the “Percent Growth” value ([6]; A498, log10 concentration −8.0) was 100%. For the same compound, the TGI ([7]; RXF 393 (Renal Cancer)) was 5.27E−7, the “Mean Optical Densities” value [7, 18] was 0.239 and the “Percent Growth” value [7, 18] was −54%. The “Mean Optical Densities” value [7, 19] was 0.308, the “Percent Growth” value [7, 19] was −40% and the “Mean Optical Densities” value [7, 20] was 0.333. For the same compound, the “Percent Growth” value [7, 20] was −35%, the “Mean Optical Densities” value [7, 21] was 0.928 and the “Percent Growth” value [7, 21] was 92%. The “Mean Optical Densities” value [7, 22] was 0.980, the “Percent Growth” value [7, 22] was 103% and the TGI ([8]; UO-31 (Renal Cancer)) was 2.07E−5. The “Mean Optical Densities” value [8, 23] was 0.522, the “Percent Growth” value [8, 23] was −4% and the “Mean Optical Densities” value [8, 24] was 0.557. For the same compound, the “Percent Growth” value [8, 24] was 2%, the “Mean Optical Densities” value [8, 25] was 0.578 and the “Percent Growth” value [8, 25] was 4%. For the same compound, the “Mean Optical Densities” value [8, 26] was 1.371, the “Percent Growth” value [8, 26] was 89% and the “Mean Optical Densities” value [8, 27] was 1.378. The “Percent Growth” value [8, 27] was 90%, the TGI ([9]; MDA-MB-435 (Breast Cancer)) was 1.15E−5 and the “Mean Optical Densities” value [9, 28] was 0.242. For the same compound, the “Percent Growth” value [9, 28] was −48%, the “Mean Optical Densities” value [9, 29] was 0.511 and the “Percent Growth” value [9, 29] was 3%. The “Mean Optical Densities” value [9, 30] was 0.659, the “Percent Growth” value [9, 30] was 13% and the “Mean Optical Densities” value [9, 31] was 1.781. For the same compound, the “Percent Growth” value [9, 31] was 86%, the “Mean Optical Densities” value [9, 32] was 2.132 and the “Percent Growth” value [9, 32] was 109%. For the same compound, the GI50 ([10]; U-251) was 261 nM, the CC50 ([10]; U-251, read-out: LC50) was over 100000 nM and the GI50 [11] was 233 nM. It also gave a CC50 ([11]; read-out: LC50) of over 100000 nM, a GI50 ([12]; Homo sapiens, MDA-MB-468) of 165 nM and a CC50 ([12]; Homo sapiens, MDA-MB-468, read-out: LC50) of 803 nM. For the same compound, the TGI ([12]; MDA-MB-468 (Breast Cancer)) was 3.64E−7, the “Mean Optical Densities” value [12, 33] was 0.121 and the “Percent Growth” value [12, 33] was −72%. The “Mean Optical Densities” value [12, 34] was 0.153, the “Percent Growth” value [12, 34] was −64% and the “Mean Optical Densities” value [12, 35] was 0.154. The “Percent Growth” value [12, 35] was −64%, the “Mean Optical Densities” value [12, 36] was 0.884 and the “Percent Growth” value [12, 36] was 82%. For the same compound, the “Mean Optical Densities” value [12, 37] was 0.946 and the “Percent Growth” value [12, 37] was 93%.
